Laboratory results reported in patent publication US20110097274A1, “Carbon-11 and fluorine-18 labeled radioligands for positron emission tomography (PET) imaging for the brain serotonin transporters” (priority 2002, published 2011).
“And” between values parts separate entries of the source, which are not always exact repeats. Identical values can stand only once.

Test system: SERT
Test: Baboon PET imaging: brain uptake, kinetic analysis and SERT parameters
Type: in vivo
Procedure: PET imaging protocol: PET experiments (n=20) were performed at Columbia University. Two adult male baboons (baboon A and B) were studied twice with each of the 5 radioligands (4 experiments per radioligand). All experiments took place within a 9-month period. Baboons A and B were 31 kg and 21 kg in weight at the beginning of the experimental period and 28 and 22 kg at the end, respectively. Test and retest experiments with the same radioligand were obtained on different days, with an average interval of 117±53 days.
Experiments were performed according to protocols approved by the Columbia-Presbyterian Medical Center Institutional Animal Care and Use Committee. Fasted animals were immobilized with ketamine (10 mg/kg i.m.), and anesthetized with 1.8% isoflurane via an endotracheal tube. Vital signs were monitored every 10 minutes and the temperature was kept constant at 37° C. with heated water blankets. An i.v. perfusion line was used for hydration and injection of radioligands and nonradioactive drugs. A catheter was inserted in a femoral artery for arterial blood sampling. Head was positioned at the center of the field of view as defined by imbedded laser lines. PET imaging was performed with the ECAT EXACT HR+PET scanner (Siemens/CTI, Knoxville, Tenn.). In 3D mode, this camera provides an in-plane resolution of 4.3 mm, 4.5 mm, 5.4 mm and 8.0 mm full width at half maximum (FWHM) at a distance of 0, 1, 10 and 20 cm from the center of the field of view, respectively (Brix et al., 1997). A 15 minute transmission scan was obtained prior to radioligand injection for attenuation correction. Activity was injected i.v. over 30 seconds. […] Emission data was collected in the 3D mode for 91 minutes as 21 successive frames of increasing duration (6*10 seconds, 2*1 minutes, 4*2 minutes, 2*5 minutes, and 7*10 minutes).
Image analysis: A Magnetic Resonance Image (MRI) of each baboon's brain was obtained for the purpose of identifying the regions of interest (ROI) (T1-weighted axial MRI sequence, acquired parallel to the anterior-posterior commissure, TR 34 msec, TE 5 msec, flip angle of 45 degrees, slice thickness is 1.5 mm, zero gap, matrix 1.5 mm×1 mm×1 mm voxels). The following regions were drawn on the MR images: cerebellum, midbrain, thalamus, striatum, hippocampus, temporal cortex, cingulate cortex and occipital cortex.
PET emission data were attenuation-corrected using the transmission scan, and frames were reconstructed using a Shepp filter (cutoff 0.5 cycles/projection rays). Reconstructed image files were then processed using the image analysis software MEDx (Sensor Systems, Inc., Sterling, Va.). An image was created by summing all the frames, and this summed image was used to define the registration parameters with the MR image, using between-modality automated image registration (AIR) algorithm (Woods et al., 1993). Registration parameters were then applied to the individual frames for registration to the MR data set. Regional boundaries were transferred to the individual registered PET frames, and time-activity curves were measured and decay-corrected. Right and left regions were averaged. For a given animal, the same regions were used for all radioligands.
Brain uptake: Total brain uptake was expressed as percentage of the injected dose per gram of tissue (% ID g^−1) in a region encompassing the entire brain. Regional peak time was defined as the mid-time of the frame associated with the highest activity value. To estimate the degree of wash-out from the brain captured during the scan interval (91 minutes), the decrease in activity from the peak frame to the last frame was calculated and expressed in percentage of the peak activity.
Kinetic analysis: Regional total distribution volumes (VT, mL g^−1) were derived with kinetic analysis of the regional time-activity curves, using the arterial plasma concentrations as input function. […]

[1] = BP = VT ROI − VT CER, baboons, mean ± SD of four experiments
[2] = Mean ± SD of four experiments in two baboons
[3] = baboons, mean ± SD of four experiments
[4] = last scan 90 minutes, baboons, mean ± SD of four experiments
[5] = one-tissue compartment model, baboons, mean ± SD of four experiments

## [11CH3]Sc1ccc([C@H]2CN3CCC[C@H]3c3ccccc32)cc1 [[^11C]McN 5652]
[1]
  Binding potential Cingulate Cortex: 5.4 ± 0.8 mL/g
  Binding potential Hippocampus: 9.5 ± 2.3 mL/g
  Binding potential Midbrain: 25.9 ± 6.1 mL/g
  Binding potential Occipital Cortex: 2.9 ± 1.6 mL/g
  Binding potential Striatum: 17.6 ± 4.0 mL/g
  Binding potential Temporal Cortex: 6.2 ± 1.8 mL/g
  Binding potential Thalamus: 28.8 ± 6.9 mL/g
Baboon A, single experiment
  Equilibrium specific to non-specific partition coefficient (V3″) Cingulate Cortex: 0.21 and 0.17
  Equilibrium specific to non-specific partition coefficient (V3″) Hippocampus: 0.41 and 0.29
  Equilibrium specific to non-specific partition coefficient (V3″) Midbrain: 1.16 and 0.78
  Equilibrium specific to non-specific partition coefficient (V3″) Occipital Cortex: 0.13 and 0.18
  Equilibrium specific to non-specific partition coefficient (V3″) Striatum: 0.81 and 0.49
  Equilibrium specific to non-specific partition coefficient (V3″) Temporal Cortex: 0.34 and 0.23
  Equilibrium specific to non-specific partition coefficient (V3″) Thalamus: 1.17 and 0.82
Baboon B, single experiment
  Equilibrium specific to non-specific partition coefficient (V3″) Cingulate Cortex: 0.20
  Equilibrium specific to non-specific partition coefficient (V3″) Hippocampus: 0.38 and 0.30
  Equilibrium specific to non-specific partition coefficient (V3″) Midbrain: 1.00 and 0.80
  Equilibrium specific to non-specific partition coefficient (V3″) Occipital Cortex: 0.05 and 0.07
  Equilibrium specific to non-specific partition coefficient (V3″) Striatum: 0.66 and 0.60
  Equilibrium specific to non-specific partition coefficient (V3″) Temporal Cortex: 0.18 and 0.16
  Equilibrium specific to non-specific partition coefficient (V3″) Thalamus: 1.15 and 1.00
[2]
  Equilibrium specific to non-specific partition coefficient (V3″) Cingulate Cortex: 0.19 and 0.19 ± 0.02
  Equilibrium specific to non-specific partition coefficient (V3″) Hippocampus: 0.34 and 0.34 ± 0.06
  Equilibrium specific to non-specific partition coefficient (V3″) Midbrain: 0.94 and 0.94 ± 0.18
  Equilibrium specific to non-specific partition coefficient (V3″) Occipital Cortex: 0.11 and 0.11 ± 0.06
  Equilibrium specific to non-specific partition coefficient (V3″) Striatum: 0.64 and 0.64 ± 0.13
  Equilibrium specific to non-specific partition coefficient (V3″) Temporal Cortex: 0.23 and 0.23 ± 0.08
  Equilibrium specific to non-specific partition coefficient (V3″) Thalamus: 1.04 and 1.04 ± 0.16
baboons
  K1, average of all regions and all animals: 0.93 ± 0.18 mL/g/min
  VT, average of all regions and all animals: 39.7 ± 11.8 mL/g
  k2, average of all regions and all animals: 0.025 ± 0.008 min⁻¹
baboons, mean of all regions
  Mean regional peak uptake time: 28 ± 12 min
  Mean regional wash-out (% decrease between peak time and last scan): 24±13%
[3]
  Regional uptake peak time Cerebellum: 15 ± 3 min
  Regional uptake peak time Cingulate Cortex: 17 ± 3 min
  Regional uptake peak time Hippocampus: 36 ± 8 min
  Regional uptake peak time Midbrain: 39 ± 13 min
  Regional uptake peak time Occipital Cortex: 17 ± 3 min
  Regional uptake peak time Striatum: 34 ± 10 min
  Regional uptake peak time Temporal Cortex: 27 ± 7 min
  Regional uptake peak time Thalamus: 41 ± 6 min
baboons, region encompassing the entire brain
  Total brain uptake at 45 min: 0.016±0.002 % ID g^−1
[4]
  Regional activity wash-out: % decrease from peak to last scan, Cerebellum: 44 ± 6%
  Regional activity wash-out: % decrease from peak to last scan, Cingulate Cortex: 34 ± 3%
  Regional activity wash-out: % decrease from peak to last scan, Hippocampus: 16 ± 3%
  Regional activity wash-out: % decrease from peak to last scan, Midbrain: 8 ± 5%
  Regional activity wash-out: % decrease from peak to last scan, Occipital Cortex: 34 ± 3%
  Regional activity wash-out: % decrease from peak to last scan, Striatum: 18 ± 7%
  Regional activity wash-out: % decrease from peak to last scan, Temporal Cortex: 24 ± 6%
  Regional activity wash-out: % decrease from peak to last scan, Thalamus: 12 ± 4%
[5]
  K1 Cerebellum: 1.05 ± 0.20 mL/g/min
  K1 Cingulate Cortex: 1.01 ± 0.24 mL/g/min
  K1 Hippocampus: 0.74 ± 0.12 mL/g/min
  K1 Midbrain: 0.92 ± 0.12 mL/g/min
  K1 Occipital Cortex: 0.95 ± 0.18 mL/g/min
  K1 Striatum: 0.95 ± 0.12 mL/g/min
  K1 Temporal Cortex: 0.83 ± 0.19 mL/g/min
  K1 Thalamus: 1.03 ± 0.15 mL/g/min
  K2 Cerebellum: 0.038 ± 0.007 min⁻¹
  K2 Cingulate Cortex: 0.031 ± 0.007 min⁻¹
  K2 Hippocampus: 0.020 ± 0.003 min⁻¹
  K2 Midbrain: 0.017 ± 0.003 min⁻¹
  K2 Occipital Cortex: 0.031 ± 0.006 min⁻¹
  K2 Striatum: 0.021 ± 0.003 min⁻¹
  K2 Temporal Cortex: 0.025 ± 0.006 min⁻¹
  K2 Thalamus: 0.019 ± 0.003 min⁻¹
  VT Cerebellum (VT CER, nonspecific distribution volume): 27.7 ± 4.0 mL/g
  VT Cingulate Cortex: 33.1 ± 4.7 mL/g
  VT Hippocampus: 37.2 ± 5.9 mL/g
  VT Midbrain: 53.6 ± 9.3 mL/g
  VT Occipital Cortex: 30.6 ± 3.9 mL/g
  VT Striatum: 45.3 ± 7.0 mL/g
  VT Temporal Cortex: 33.9 ± 4.2 mL/g
  VT Thalamus: 56.5 ± 10.3 mL/g
